Test results from US8759363B2, “Quinazoline-based T cell proliferation inhibitors” (Yissum Research Development Company of the Hebrew …, priority 2010, dated 2014).
Read-outs that look alike come from different tables or passages of the source.

Columns and labels:
[1] = test system: PC-3, HEK293, NIH-3T3, A375, MDA-MB-231; test: BrdU uptake by non-hematopoietic cell lines compared with PBMC and Jurkat; type: cell-based; settings: stimulated and non-stimulated cells
Experimental: (§1) Cells were depleted of fetal calf serum (FCS) for 12 hours. They were then stimulated to proliferate by addition of ConA (10 μg/ml) for PBMC from healthy individuals and for Jurkat cells, FCS (10%) for HEK293 and A375 cells, PDGF (30 ng/ml) for NIH 3T3 cells, and EGF (30 ng/ml) for MDA-MB-231, Cells (1×10^5) were cultured in 96-well plates for 3 days in the presence or absence of inhibitors at the concentrations specified in the text. Each condition was tested in duplicate wells.
(§2) Proliferation was assessed by BrdU incorporation using a colorimetric ELISA kit (Roche, Germany). Subsequent to labeling with 10 μM BrdU, DNA was denatured and the cells were incubated with anti-BrdU-POD, prior to the addition of colorimetric substrate (TMB). The reaction product was quantified by measuring absorbance at 450 nm in an ELISA plate reader (ELx800 BIO-TEK Instruments Inc.).
(§3) To characterize the mode of action of 2 (S101) in more detail, we first examined whether 2 inhibits non-hematopoietic cell lines. We studied the effect of 2 on the growth of four cell lines: NIH 3T3 (mouse embryonic fibroblasts), A-431 (human vulval carcinoma cells), MDA-MB-468 (human breast carcinoma cells), and PANC-1 (human pancreatic carcinoma cells) (FIGS. 1A-B). We also tested the inhibitors on human keratinocytes. […]

CD3+ cells = test: Proliferation of CD3+ cells purified from PBMC, BrdU; type: cell-based; settings: Homo sapiens, ConA-stimulated, slightly higher than, read-out: IC50 proliferation of isolated CD3+ cells
Experimental: Blood samples were taken from healthy donors and loaded on a Ficoll density gradient to purify the PBMC population. T cells were purified by human anti-CD3 using an autoMACS instrument (Miltenyi Biotec, Bergisch-Gladbach, Germany), according to the manufacturer's instructions. The identity of T cells was confirmed by flow cytometry, as they stained positive for CD3. Cells were stimulated with ConA (10 μg/ml), ODN2006 (0.5 μg/ml; Enzo Life Sciences), or LPS (50 μg/ml; Sigma-Aldrich, Steinheim, Germany), for 72 h in the presence of the inhibitor, and their proliferation was measured in the BrdU incorporation assay as will be later described.
as §2
PBMC consist of a mixture of mononucleated cells, mostly T cells. To identify the cell type that was inhibited by 2, we first purified T cells from PBMC with an autoMACS apparatus (Miltenyi Biotec), using anti-CD3 antibodies. We were now able to compare three cell populations: total PBMC, CD3+ cells purified from PBMC, and PBMC that had been depleted of CD3+ cells. […]

SLP-76 = SLP-76 tyrosine phosphorylation in Jurkat cells, immunoprecipitation and western blot; type: cell-based, human; settings: Jurkat cells treated 16 h, up to 1 μM
Experimental: Jurkat cells were washed in PBS containing Ca^2+ and Mg^2+ (Biological Industries, Beit Haemek), preheated to 37° C. for 15 min, and were either mock stimulated with PBS, or were stimulated for 1 minute with C305 (1:500). Cells were then collected and lysed at a concentration of 2×10^7 cells/ml in cold lysis buffer containing 1% NP-40, 10 mM Tris (pH 7.8), 150 mM NaCl, 1 mM phenylmethylsulfonyl fluoride (PMSF), 2 μg/ml pepstatin A, 1 μg/ml leupeptin, 10 mM sodium pyrophosphate, 0.4 mM EDTA, 0.4 mM sodium orthovanadate, and 50 mM NaF, 50 mM beta-glycerol phosphate pH 7.5 and 20 mM sodium pyrophosphate pH 7.5. After 20 min at 4° C., the lysates were cleared by centrifugation in a microfuge (Eppendorf, centrifuge 5427R) at 16,000×g for 10 min at 4° C. The supernatants were used directly for immunoprecipitation.
Western blots were prepared on nitrocellulose using standard techniques. Membranes were blocked in TBST buffer (10 mM Tris-HCl, pH 7.4 (TBS), 0.2% Tween 20, 170 mM NaCl) containing 5% low-fat milk, then probed overnight with the appropriate primary antibody. […]
Jurkat cells were treated with 2 for 16 h, and SLP-76 phosphorylation was measured by immunoprecipitation of SLP-76 protein followed by western blotting with an antibody to the phosphorylated tyrosines of the protein (FIG. 6A). […]

A375 = A375 proliferation, BrdU uptake; type: cell-based; settings: Homo sapiens, A-375
Experimental: as §1, §2, §3

With `COc1cc(-c2nc(Nc3ccc(C)cc3)c3ccccc3n2)cc(OC)c1OC` [Compound 2, N-p-tolyl-2-(3,4,5-trimethoxyphenyl)quinazolin-4-amine] the “IC50 values in various cells in comparison to IC50 for PBMC and Jurkat cells” value [1] was “higher by two orders of magnitude”, the IC50 (CD3+ cells) was > 100 nM and the “tyrosine phosphorylation of SLP-76” value (SLP-76) was “reduced but not abolished”. The IC50 (A375; A375, non-stimulated, read-out: IC50 of non-stimulated cells) was ~800 nM and the IC50 (A375; A375, serum (FCS 10%) activated, read-out: IC50 of stimulated cells) was > 10000 nM.
